Consider 22 compounds from patent US20120309739A1, “AKT / PKB INHIBITORS” (ALMAC DISCOVERY LIMITED, priority 2009, published 2012).

Where a name gives a salt, the structure may show the parent alone.

What all share (assay type): biochemical
In one test the target is T1, AKT1 (Homo sapiens, UniProt P31749).
T1 construct: purchased SignalChem
Description: AKT Kinase Assay (IMAP fluorescent polarisation) vs AKT1. Particulars: activated AKT1, FAM Crosstide substrate. On the procedure: (§1) Testing of the compounds was performed using an AKT Kinase Assay:
(§2) Activated AKT isoforms 1, 2 and 3 were assayed utilising a 5′ FAM Crosstide (Seq. GRPRTSSFAEG-OH). The extent of kinase phosphorylation was determined by fluorescent polarisation using IMAP progressive binding reagent, which introduces binding beads which allow the reagent to specifically bind to phosphate residues via covalent co-ordination complex bonds.
(§3) iMAP binding solution stops Crosstide/kinase interaction and specifically binds phosphorylated substrates. The degree of phosphorylation is determined by fluorescent polarisation (excitation 485 nm; emission 528 nm) or the reduction in speed of rotation of the excited substrate.
(§4) The following materials were used in the assay: • a) Activated AKT isoforms (SignalChem.) dissolved in Complete Reaction buffer at a pre-determined concentration selected so that the assay was carried out in the linear range. • b) AKT substrate peptide: FAM Crosstide (R7110) Molecular Devices, diluted in complete reaction buffer. • c) iMAP Progressive Screening Express Kit (R8127) Molecular Devices • d) Complete Reaction Buffer containing 0.1% BSA, 10 mM Tris-HCl, 10 mM MgCl2, 0.05% NaN3 and 0.01% phosphate free BSA, 1 mM DTT • e) Progressive Binding Solution containing 75% Buffer A, 25% Buffer B and low volume Binding Reagent which contains the binding entity for the assay • f) ATP diluted in complete reaction buffer • g) Black polystyrene 384 well assay plates (Nunc). • h) Biotek Synergy 4 Hybrid Plate reader.
(§5) 50 μl of test compound was dissolved in DMSO (Sigma Aldrich) and serially diluted in complete reaction buffer to give a fourteen point half log dose response and plated into 384 well black plates. The compound was incubated at room temperature with activated AKT isoform ([…]) at the pre-determined concentration, for 45 minutes.
(§6) […] of ATP solution mixed with 2.5 μl of AKT substrate peptide (FAM Crosstide (R7110) Molecular Devices) were dispensed into each well and the plate centrifuged at 1000 rpm for 20 seconds to ensure homogenous mixing of reagents. The reaction mix was incubated in the dark for one hour at room temperature.
(§7) The kinase reaction was stopped by the addition of Progressive Binding Solution and the mixture allowed to equilibrate for one hour in the dark, at room temperature.
(§8) The fluorescent polarisation generated in each well was determined using a […] Synergy 4 Hybrid plate reader. In brief, each reaction solution was excited at 485 nm with the emission measured at 528 nm in both the parallel and perpendicular pathway.
(§9) The polarisation value generated in each well was calculated by Gen5 software (Biotek) and the % inhibition of kinase activity compared to vehicle control was calculated via GraphPad Prism. IC50 values for each compound were calculated by non-linear regression analysis using Prism software.
(§10) All plates were internally controlled by two methods. Firstly, by calculating the signal:noise ratio; based on kinase polarisation without inhibitor and polarisation generated by complete reaction buffer in the absence of activated kinase. Secondly by determining IC50 values generated by known inhibitors of the AKT isoforms.

A further test concerns the target T2, AKT2 (Homo sapiens, UniProt P31751).
T2 construct: purchased SignalChem
The test is described as follows: AKT Kinase Assay (IMAP fluorescent polarisation) vs AKT2. The conditions noted are these: activated AKT2, FAM Crosstide substrate. As to the method:
as §1, §2, §3, §4, §5, §6, §7, §8, §9, §10

The next test has as its target T3, AKT3 (Homo sapiens, UniProt Q9Y243).
T3 construct: purchased SignalChem
Description: AKT Kinase Assay (IMAP fluorescent polarisation) vs AKT3. Particulars: activated AKT3, FAM Crosstide substrate. As to the method: as §1, §2, §3, §4, §5, §6, §7, §8, §9, §10

T2 sequence (P31751 whole entry): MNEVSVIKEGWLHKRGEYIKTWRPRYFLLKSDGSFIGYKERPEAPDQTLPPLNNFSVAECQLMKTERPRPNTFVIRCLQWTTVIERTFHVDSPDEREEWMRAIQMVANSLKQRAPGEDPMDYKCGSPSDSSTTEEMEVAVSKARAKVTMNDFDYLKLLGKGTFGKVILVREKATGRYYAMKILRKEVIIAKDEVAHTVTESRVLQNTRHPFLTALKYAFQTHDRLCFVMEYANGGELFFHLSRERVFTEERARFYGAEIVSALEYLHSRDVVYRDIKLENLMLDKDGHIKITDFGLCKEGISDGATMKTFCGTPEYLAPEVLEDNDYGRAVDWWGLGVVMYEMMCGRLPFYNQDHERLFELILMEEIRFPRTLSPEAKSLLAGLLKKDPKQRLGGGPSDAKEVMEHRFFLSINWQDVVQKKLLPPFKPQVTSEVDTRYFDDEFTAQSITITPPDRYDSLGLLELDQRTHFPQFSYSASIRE
T3 sequence (Q9Y243 whole entry): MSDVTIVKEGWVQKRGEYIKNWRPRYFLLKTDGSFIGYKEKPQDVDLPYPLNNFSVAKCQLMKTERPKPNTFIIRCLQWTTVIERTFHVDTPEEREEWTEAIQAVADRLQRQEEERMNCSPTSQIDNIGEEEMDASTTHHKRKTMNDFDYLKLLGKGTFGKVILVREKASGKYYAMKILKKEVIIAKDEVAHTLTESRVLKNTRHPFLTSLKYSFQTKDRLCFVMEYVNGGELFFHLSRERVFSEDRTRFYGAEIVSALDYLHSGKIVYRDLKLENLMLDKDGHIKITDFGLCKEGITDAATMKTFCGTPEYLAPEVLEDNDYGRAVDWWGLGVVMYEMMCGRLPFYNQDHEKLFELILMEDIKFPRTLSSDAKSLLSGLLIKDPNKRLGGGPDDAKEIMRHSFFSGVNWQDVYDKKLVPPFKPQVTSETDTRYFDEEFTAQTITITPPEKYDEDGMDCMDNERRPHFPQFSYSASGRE
T1 sequence (P31749 whole entry): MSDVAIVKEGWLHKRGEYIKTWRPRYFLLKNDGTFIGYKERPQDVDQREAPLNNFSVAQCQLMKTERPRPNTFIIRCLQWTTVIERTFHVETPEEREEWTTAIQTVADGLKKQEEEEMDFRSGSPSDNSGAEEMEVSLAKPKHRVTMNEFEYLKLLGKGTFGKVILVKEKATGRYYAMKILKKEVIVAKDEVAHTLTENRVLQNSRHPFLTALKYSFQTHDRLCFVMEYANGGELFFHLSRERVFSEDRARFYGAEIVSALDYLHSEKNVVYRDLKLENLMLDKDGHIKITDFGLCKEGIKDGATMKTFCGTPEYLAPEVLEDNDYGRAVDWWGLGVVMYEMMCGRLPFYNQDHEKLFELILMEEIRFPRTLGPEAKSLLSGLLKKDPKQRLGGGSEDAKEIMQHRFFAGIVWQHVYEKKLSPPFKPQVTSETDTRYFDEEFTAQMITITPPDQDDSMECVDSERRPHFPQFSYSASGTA

Take `COc1nc(N)nc2oc(-c3ccc(C4(N)CCC4)cc3)c(-c3ccccc3)c12` [Example 31, 6-(4-(1-Aminocyclobutyl)phenyl)-4-methoxy-5-phenylfuro[2,3-d]pyrimidin-2-amine]: the IC50 – broadly, the concentration that gives 50% inhibition – is no more than 100 nM at AKT1, 100 to 1000 nM on AKT2 and greater than 10000 nM at AKT3.

In the case of `COc1nc(N2CCN(CCN(C)C)CC2)nc2oc(-c3ccc(C4(N)CCC4)cc3)c(-c3ccccc3)c12` [Example 33, 1-(4-(2-(4-(2-(Dimethylamino)ethyl)piperazin-1-yl)-4-methoxy-5-phenylfuro[2,3-d]pyrimidin-6-yl)phenyl)cyclobutanamine], the results for the half-inhibitory concentration (IC50) at AKT1, at AKT2 and on AKT3 were 100 to 1000 nM, 100 to 1000 nM and 1000 to 10000 nM, respectively.

With `COc1nc(NCCN2CCN(C)CC2)nc2oc(-c3ccc(C4(N)CCC4)cc3)c(-c3ccccc3)c12` [Example 34, 6-(4-(1-Aminocyclobutyl)phenyl)-4-methoxy-N-(2-(4-methylpiperazin-1-yl)ethyl)-5-phenylfuro[2,3-d]pyrimidin-2-amine], the 50% inhibitory concentration (IC50) on AKT1 is no more than 100 nM; at AKT2 it was 100 to 1000 nM; on AKT3 it was 1000 to 10000 nM.

Regarding `COc1nc(N2CC[C@H](O)C2)nc2oc(-c3ccc(C4(N)CCC4)cc3)c(-c3ccccc3)c12` [Example 35, (S)-1-(6-(4-(1-Aminocyclobutyl)phenyl)-4-methoxy-5-phenylfuro[2,3-d]pyrimidin-2-yl)pyrrolidin-3-ol], the figures for the concentration for half-maximal inhibition (IC50) on AKT1, at AKT2 and at AKT3 were 100 to 1000 nM, 100 to 1000 nM and 1000 to 10000 nM, respectively.

Regarding `COc1nc(NCCO)nc2oc(-c3ccc(C4(N)CCC4)cc3)c(-c3ccccc3)c12` [Example 38, 2-((6-(4-(1-Aminocyclobutyl)phenyl)-4-methoxy-5-phenylfuro[2,3-d]pyrimidin-2-yl)amino)ethanol], the concentration for half-maximal inhibition (IC50) at AKT1 is no more than 100 nM; on AKT2, 100 to 1000 nM; on AKT3, greater than 10000 nM.

Turning to `COc1nc(N2CCC(N)CC2)nc2oc(-c3ccc(C4(N)CCC4)cc3)c(-c3ccccc3)c12` [Example 39, 1-(6-(4-(1-Aminocyclobutyl)phenyl)-4-methoxy-5-phenylfuro[2,3-d]pyrimidin-2-yl)piperidin-4-amine], the values for the IC50 on AKT1, on AKT2 and on AKT3 were 100 to 1000 nM, 100 to 1000 nM and 1000 to 10000 nM, respectively.

Regarding `COc1nc(N2CCC(O)CC2)nc2oc(-c3ccc(C4(N)CCC4)cc3)c(-c3ccccc3)c12` [Example 40, 1-(6-(4-(1-Aminocyclobutyl)phenyl)-4-methoxy-5-phenylfuro[2,3-d]pyrimidin-2-yl)piperidin-4-ol], the figures for the IC50 at AKT1, at AKT2 and at AKT3 were 100 to 1000 nM, 100 to 1000 nM and greater than 10000 nM, respectively.

With `COc1nc(NCCCO)nc2oc(-c3ccc(C4(N)CCC4)cc3)c(-c3ccccc3)c12` [Example 41, 3-((6-(4-(1-Aminocyclobutyl)phenyl)-4-methoxy-5-phenylfuro[2,3-d]pyrimidin-2-yl)amino)propan-1-ol], the IC50 was no more than 100 nM at AKT1, 100 to 1000 nM at AKT2 and greater than 10000 nM at AKT3.

Regarding `COCCNc1nc(OC)c2c(-c3ccccc3)c(-c3ccc(C4(N)CCC4)cc3)oc2n1` [Example 42, 6-(4-(1-Aminocyclobutyl)phenyl)-4-methoxy-N-(2-methoxyethyl)-5-phenylfuro[2,3-d]pyrimidin-2-amine], the figures for the 50% inhibitory concentration (IC50) at AKT1, on AKT2 and at AKT3 were 100 to 1000 nM, 100 to 1000 nM and greater than 10000 nM, respectively.

On to `COc1nc(NCCN)nc2oc(-c3ccc(C4(N)CCC4)cc3)c(-c3ccccc3)c12` [Example 43, N^1-(6-(4-(1-Aminocyclobutyl)phenyl)-4-methoxy-5-phenylfuro[2,3-d]pyrimidin-2-yl)ethane-1,2-diamine], for which the IC50 fell in the range of 100 to 1000 nM at AKT1, 100 to 1000 nM at AKT2 and 1000 to 10000 nM on AKT3.

On to `COc1nc(-n2ccnc2)nc2oc(-c3ccc(C4(N)CCC4)cc3)c(-c3ccccc3)c12` [Example 44, 1-(4-(2-(1H-Imidazol-1-yl)-4-methoxy-5-phenylfuro[2,3-d]pyrimidin-6-yl)phenyl)cyclobutanamine], for which the IC50 was no more than 100 nM on AKT1, 100 to 1000 nM on AKT2 and greater than 10000 nM on AKT3.

Consider `COc1nc(N2CCN(C(C)=O)CC2)nc2oc(-c3ccc(C4(N)CCC4)cc3)c(-c3ccccc3)c12` [Example 45, 1-(4-(6-(4-(1-Aminocyclobutyl)phenyl)-4-methoxy-5-phenylfuro[2,3-d]pyrimidin-2-yl)piperazin-1-yl)ethanone], for which the figures for the IC50 at AKT1, on AKT2 and on AKT3 were 100 to 1000 nM, 100 to 1000 nM and 1000 to 10000 nM, respectively.

Turning to `CCOc1nc(N2CCNCC2)nc2oc(-c3ccc(C4(N)CCC4)cc3)c(-c3ccccc3)c12` [Example 46, 1-(4-(4-Ethoxy-5-phenyl-2-(piperazin-14)furo[2,3-d]pyrimidin-6-yl)phenyl)cyclobutanamine, HCl], the half-inhibitory concentration (IC50) on AKT1, on AKT2 and at AKT3 was 100 to 1000 nM throughout.

As to `COc1nc(N2CCCCC2)nc2oc(-c3ccc(C4(N)CCC4)cc3)c(-c3ccccc3)c12` [Example 47, 1-(4-(4-Methoxy-5-phenyl-2-(piperidin-1-yl)furo[2,3-d]pyrimidin-6-yl)phenyl)cyclobutanamine], the IC50 at AKT1 was 1000 to 10000 nM; on AKT2, 1000 to 10000 nM; on AKT3 it was greater than 10000 nM.

With `COc1nc(NC(C)=O)nc2oc(-c3ccc(C4(N)CCC4)cc3)c(-c3ccccc3)c12` [Example 48, N-(6-(4-(1-Aminocyclobutyl)phenyl)-4-methoxy-5-phenylfuro[2,3-d]pyrimidin-2-yl)acetamide], the half-maximal inhibitory concentration (IC50) was no more than 100 nM at AKT1, 100 to 1000 nM at AKT2 and 100 to 1000 nM at AKT3.

With `COc1nc(OC)c2c(-c3ccccc3)c(-c3ccc(C4(N)CCC4)cc3)oc2n1` [Example 49, 1-(4-(2,4-Dimethoxy-5-phenylfuro[2,3-d]pyrimidin-6-yl)phenyl)cyclobutanamine], the concentration for half-maximal inhibition (IC50) was no more than 100 nM on AKT1, 100 to 1000 nM on AKT2 and greater than 10000 nM on AKT3.

On to `NC1CCN(c2ncc3c(-c4ccccc4)c(-c4ccc(C5(N)CCC5)cc4)oc3n2)CC1` [Example 50, 1-(6-(4-(1-Aminocyclobutyl)phenyl)-5-phenylfuro[2,3-d]pyrimidin-2-yl)piperidin-4-amine], for which the IC50 was 1000 to 10000 nM on AKT1, 100 to 1000 nM at AKT2 and greater than 10000 nM at AKT3.

Take `NC1(c2ccc(-c3oc4nc(NCCO)ncc4c3-c3ccccc3)cc2)CCC1` [Example 51, 2-((6-(4-(1-Aminocyclobutyl)phenyl)-5-phenylfuro[2,3-d]pyrimidin-2-yl)amino)ethanol]: the IC50 is 100 to 1000 nM at AKT1, 100 to 1000 nM on AKT2 and greater than 10000 nM at AKT3.

On to `NC1(c2ccc(-c3oc4nc(N5CCOCC5)ncc4c3-c3ccccc3)cc2)CCC1` [Example 52, 1-(4-(2-Morpholino-5-phenylfuro[2,3-d]pyrimidin-6-yl)phenyl)cyclobutanamine], for which the results for the IC50 on AKT1, on AKT2 and at AKT3 were 1000 to 10000 nM, 100 to 1000 nM and greater than 10000 nM, respectively.

For `NC1(c2ccc(-c3oc4nc(N5CCNCC5)ncc4c3-c3ccccc3)cc2)CCC1` [Example 53, 1-(4-(5-Phenyl-2-(piperazin-1-yl)furo[2,3-d]pyrimidin-6-yl)phenyl)cyclobutanamine], the IC50 at AKT1 is 100 to 1000 nM; on AKT2 it was 100 to 1000 nM; on AKT3 it was greater than 10000 nM.

In the case of `NC1(c2ccc(-c3oc4nc(OCCO)ncc4c3-c3ccccc3)cc2)CCC1` [Example 54, 2-((6-(4-(1-Aminocyclobutyl)phenyl)-5-phenylfuro[2,3-d]pyrimidin-2-yl)oxy)ethanol], the results for the IC50 on AKT1, on AKT2 and at AKT3 were no more than 100 nM, 100 to 1000 nM and greater than 10000 nM, respectively.

In the case of `CNc1ncc2c(-c3ccccc3)c(-c3ccc(C4(N)CCC4)cc3)oc2n1` [Example 55, 6-(4-(1-Aminocyclobutyl)phenyl)-N-methyl-5-phenylfuro[2,3-d]pyrimidin-2-amine], the IC50 on AKT1 was no more than 100 nM; at AKT2 it was 100 to 1000 nM; on AKT3, greater than 10000 nM.
